Measured values taken from article PMC7862291, “Full-length in meso structure and mechanism of rat kynurenine 3-monooxygenase inhibition” (Communications Biology, 2021).
“And” between values parts separate entries of the source, which are not always exact repeats. Equal values may be shown once. Read-outs that look alike come from different tables or passages of the source.

Key:
KMO [1] = tested on: KMO; design: method as in ref 20 Winkler et al; conditions: 100 kynurenine, CHO cells, LC/MS; ref 20 Winkler et al; read-out: cellular IC50 (Winkler et al); cited from earlier work
Rat KMO = biological target: T1, Rat KMO (Rattus norvegicus, UniProt O88867); assay: Rat KMO enzyme (cell-free) assay, NADPH consumption by absorbance; format: biochemical; conditions: duplicates
T1 construct: The GST-tagged full-length KMO (1-478) baculovirus vector contained a thrombin cleavage site; GST (thrombin cleavage site between GST and KMO) (N, cleaved yes); made in house; host or cells: Spodoptera frugiperda (Sf9), baculovirus
Experimental: (§1) Human KMO was purchased from Origene and used to assay compounds. Full-length Rat-KMO purified for crystallisation was used to assay compounds. Full-length Rat-KMO-expressing membranes were used for mutant assays (Fig. 4b) only. […] Images were taken using Odyssey CLX (LI-COR Biosciences) and quantified using ImageStudio2.0 (LI-COR Biosciences) software.
(§2) Test compounds were dissolved in DMSO and diluted with assay buffer containing 50 mM HEPES, 2 mM MgCl2, 0.5 mM EGTA, 1 mM DTT, 0.05% Tween20 and 0.005% of antiform SI (pH = about 7.9) to prepare a 4% DMSO solution. […] After 5 min of pre-incubation, reactions were started by adding 10 μL of substrate solution containing 2.4 mM kynurenine and 0.6 mM NADPH. Reactions were run for 90 min at 30 °C, then terminated by adding 5 μL of stop buffer (40 mM maleimide, 2 mM WST-9 and 0.1 mM 1-methoky PMS in water). […] Liposomal assays were performed in the same manner except that the composition of the assay buffer was changed (phosphate-buffered saline, 2 mM MgCl2, 1 mM DTT, 0.05% Tween 20).
(§3) Compound assays were analysed and plotted on graphs using Prism (GraphPad Software Inc. San Diego, CA, USA).

[2] = biological target: T2, HEK293 cells stably expressing human KMO (Homo sapiens, UniProt O15229); assay: Cell-based human KMO inhibition assay (LC/MS of 3-hydroxykynurenine); conditions: for inhibition rate, Hs-KMO cellular assay (Figure 1C source data): duplicates
T2 construct: expressed in transfected cells
Experimental: (§4) HEK293 cells stably expressing human or rat KMO were maintained in DMEM containing 10% fetal bovine serum, 50 units/mL penicillin, 50 μg/mL streptomycin and 0.2 mg⁄mL zeocine. […] After 2 overnights, the medium was replaced with 10 μL/well of assay buffer (1 × HBSS containing 20 mM HEPES). Ten microliters per well of the diluted test compounds (final, 0–30 μM, 0.3% DMSO) were added to the respective wells. After ~30 min of pre-incubation at 37 °C, reactions were started by adding 20 μL of substrate solution containing 0.2 mM kynurenine. Reactions were run for 2 h at 37 °C, the assay buffer was discarded and the plate was immediately frozen and stored at −30 °C until LC/MS analysis.
(§5) An 80 µL volume of cold acetonitrile with 2% formic acid was added to the cell pellet in a 384-well plate and centrifuged at 3000 rpm for 10 min at 4 °C. A 40 µL volume of the supernatant was transferred to a new 384-well plate and evaporated to dryness under nitrogen gas at 45 °C. The residue was reconstituted in 100 µL of acetonitrile/water (10:90, v/v) with 0.1% formic acid, and 1 µL was injected into the LC-MS/MS system.
(§6) LC/MS/MS was performed on a Shimadzu UFLC Nexera X2 (Shimadzu Corporation, Japan) and an QTRAP® 5500 LC-MS/MS System (SCIEX, Framingham, USA). Chromatographic separation was performed using an Allure PFP Propyl analytical column (5 µm, 2.1 × 100 mm) maintained at 50 °C. The autosampler temperature was set at 15 °C. The mobile phase consisted of formic acid/water/acetonitrile/methanol (0.5/500/250/250, v/v/v/v) and the flow rate was set at 0.3 mL/min. 3-hydroxykynurenine was eluted from the LC column at a retention time of 1.2 min. The MS system was operated using electrospray ionization (ESI) in positive mode. The optimum conditions were curtain gas, 20 psi; ion spray voltage, 5500 V; heated nebulizer temperature (TEM), 700 °C; nebulizing gas (GS1), 70 psi; and heater gas (GS2), 70 psi. […] Analyst® software (SCIEX, Framingham, USA) was used for system control and MultiQuant™ Software (SCIEX, Framingham, USA) was used for data analysis.
as §3

hKMO = biological target: T3, hKMO (Homo sapiens, UniProt O15229); assay: Human KMO enzyme (cell-free) assay, NADPH consumption by absorbance; format: biochemical; conditions: for inhibition rate, Hs-KMO cell-free assay (Figure 1A source data): duplicates
T3 construct: purchased Origene
Experimental: as §1, §2, §3

[3] = biological target: T4, HEK293 cells stably expressing rat KMO (Rattus norvegicus, UniProt O88867); assay: Cell-based rat KMO inhibition assay (LC/MS of 3-hydroxykynurenine); conditions: duplicates
T4 construct: expressed in transfected cells
Experimental: as §4, §5, §6, §3

KMO [4] = tested on: KMO; design: method as in ref 27 Jacobs et al; conditions: 600 μM kynurenine, recombinant protein, fluorescence; ref 27 Jacobs et al; cited from earlier work

T3 sequence (O15229 whole entry): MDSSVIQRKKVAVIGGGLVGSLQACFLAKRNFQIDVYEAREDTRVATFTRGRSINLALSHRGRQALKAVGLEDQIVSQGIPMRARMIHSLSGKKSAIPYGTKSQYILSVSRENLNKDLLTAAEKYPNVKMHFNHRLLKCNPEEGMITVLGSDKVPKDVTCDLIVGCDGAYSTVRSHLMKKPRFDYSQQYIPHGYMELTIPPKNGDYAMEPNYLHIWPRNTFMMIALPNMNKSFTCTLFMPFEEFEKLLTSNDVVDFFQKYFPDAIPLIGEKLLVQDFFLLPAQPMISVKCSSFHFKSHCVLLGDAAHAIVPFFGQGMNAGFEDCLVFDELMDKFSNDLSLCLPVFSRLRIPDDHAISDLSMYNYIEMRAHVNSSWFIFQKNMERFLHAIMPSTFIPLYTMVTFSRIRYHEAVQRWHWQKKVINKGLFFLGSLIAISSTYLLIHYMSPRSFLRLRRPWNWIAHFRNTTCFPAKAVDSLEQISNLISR
T2 sequence (O15229 whole entry): as above
T4 sequence (O88867 whole entry): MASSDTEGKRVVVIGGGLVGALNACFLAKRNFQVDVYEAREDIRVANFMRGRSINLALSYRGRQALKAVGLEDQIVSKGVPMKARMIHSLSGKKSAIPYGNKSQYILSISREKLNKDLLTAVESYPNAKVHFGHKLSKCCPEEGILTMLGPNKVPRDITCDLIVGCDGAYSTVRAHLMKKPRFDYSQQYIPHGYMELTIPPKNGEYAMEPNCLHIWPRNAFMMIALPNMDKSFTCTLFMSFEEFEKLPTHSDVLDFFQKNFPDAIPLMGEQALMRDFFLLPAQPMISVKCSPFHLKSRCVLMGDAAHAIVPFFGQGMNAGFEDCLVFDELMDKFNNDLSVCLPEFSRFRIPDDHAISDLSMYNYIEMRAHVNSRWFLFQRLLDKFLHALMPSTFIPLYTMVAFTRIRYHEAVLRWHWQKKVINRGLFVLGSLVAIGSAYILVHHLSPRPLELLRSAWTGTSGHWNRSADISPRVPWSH
T1 sequence (O88867 whole entry): as above

## COc1ccc(S(=O)(=O)Nc2nc(-c3cccc([N+](=O)[O-])c3)cs2)cc1OC [Ro 61-8048, reference compound]
KMO [1]
  IC50: 640 nM
Rat KMO; conc 0.03 μM
  inhibition rate, Rat-KMO cell-free assay (Figure 1B source data): 9.186% and 13.905%
Rat KMO; conc 0.1 μM
  inhibition rate, Rat-KMO cell-free assay (Figure 1B source data): 21.990% and 21.221%
Rat KMO; conc 0.3 μM
  inhibition rate, Rat-KMO cell-free assay (Figure 1B source data): 47.520% and 47.997%
Rat KMO; conc 1 μM
  inhibition rate, Rat-KMO cell-free assay (Figure 1B source data): 71.114% and 72.121%
Rat KMO; conc 3 μM
  inhibition rate, Rat-KMO cell-free assay (Figure 1B source data): 77.185% and 81.347%
Rat KMO; conc 10 μM
  inhibition rate, Rat-KMO cell-free assay (Figure 1B source data): 87.099% and 89.538%
Rat KMO; conc 30 μM
  inhibition rate, Rat-KMO cell-free assay (Figure 1B source data): 98.075% and 95.980%
Rat KMO; conc 100 μM
  inhibition rate, Rat-KMO cell-free assay (Figure 1B source data): 89.963% and 91.580%
[2]; 100 μM kynurenine, HEK293, LC/MS, species not given, read-out: cellular IC50 (this study)
  IC50: 1200 nM
[2]; conc 0.03 μM
  inhibition rate, Hs-KMO cellular assay (Figure 1C source data): 4.914% and 11.092%
[2]; conc 0.1 μM
  inhibition rate, Hs-KMO cellular assay (Figure 1C source data): 7.800% and 13.947%
[2]; conc 0.3 μM
  inhibition rate, Hs-KMO cellular assay (Figure 1C source data): 9.982% and 16.379%
[2]; conc 1 μM
  inhibition rate, Hs-KMO cellular assay (Figure 1C source data): 34.540% and 30.293%
[2]; conc 3 μM
  inhibition rate, Hs-KMO cellular assay (Figure 1C source data): 100.863% and 99.409%
[2]; conc 10 μM
  inhibition rate, Hs-KMO cellular assay (Figure 1C source data): 104.869% and 104.896%
[2]; conc 30 μM
  inhibition rate, Hs-KMO cellular assay (Figure 1C source data): 105.453%
hKMO; 1200 μM kynurenine, recombinant protein, absorbance, species not given, read-out: IC50 (cell-free assay, this study)
  IC50: 1400 nM
hKMO; conc 0.03 μM
  inhibition rate, Hs-KMO cell-free assay (Figure 1A source data): 7.785% and 11.650%
hKMO; conc 0.1 μM
  inhibition rate, Hs-KMO cell-free assay (Figure 1A source data): 5.377% and 7.729%
hKMO; conc 0.3 μM
  inhibition rate, Hs-KMO cell-free assay (Figure 1A source data): 12.406% and 14.871%
hKMO; conc 1 μM
  inhibition rate, Hs-KMO cell-free assay (Figure 1A source data): 37.359% and 37.779%
hKMO; conc 3 μM
  inhibition rate, Hs-KMO cell-free assay (Figure 1A source data): 72.366% and 74.382%
hKMO; conc 10 μM
  inhibition rate, Hs-KMO cell-free assay (Figure 1A source data): 94.630%
hKMO; conc 30 μM
  inhibition rate, Hs-KMO cell-free assay (Figure 1A source data): 102.611% and 104.600%
hKMO; conc 100 μM
  inhibition rate, Hs-KMO cell-free assay (Figure 1A source data): 98.579% and 94.322%
[3]; conc 0.03 μM
  inhibition rate, Rat-KMO cellular assay (Figure 1D source data): 12.914% and 13.940%
[3]; conc 0.1 μM
  inhibition rate, Rat-KMO cellular assay (Figure 1D source data): 6.038% and 6.971%
[3]; conc 0.3 μM
  inhibition rate, Rat-KMO cellular assay (Figure 1D source data): 6.605% and 2.668%
[3]; conc 1 μM
  inhibition rate, Rat-KMO cellular assay (Figure 1D source data): 18.248% and 25.802%
[3]; conc 3 μM
  inhibition rate, Rat-KMO cellular assay (Figure 1D source data): 86.872% and 86.727%
[3]; conc 10 μM
  inhibition rate, Rat-KMO cellular assay (Figure 1D source data): 97.726% and 97.601%
[3]; conc 30 μM
  inhibition rate, Rat-KMO cellular assay (Figure 1D source data): 99.995% and 100.184%
KMO [4]
  IC50: 780 ± 1000 nM
